{
  "source": "patent US6482609B1",
  "about": "“Isolated human EDG-4 receptor and polynucletide encoding said receptor” (priority 1997, dated 2002)",
  "key": {"[1]": {"test_system": "Human Umbilical Vein Endothelial Cells (HUVEC)", "assay": "IL-8 ELISA on primary cultured HUVEC treated with lysolipids", "assay_type": "cell-based", "conditions": "5 μM, 6 hr", "procedure": "Plating, Pretreatment and Treatment of HUVEC\nProcedures were followed as detailed above in “Procedure #1 for HeLa Cells” with the following exceptions:\nCells were plated at 20,000 cells/well into 24-well plates. The next day, cells were serum-starved overnight in EBM medium (Clonetics) with 0.5% FBS, and then treated in EBM without FBS for 6 hr with the following lysolipids:\nSupematants were collected and IL-8 levels were deternined using ELISA as described previously."}, "[2]": {"test_system": "HL-60 cells", "assay": "IL-8 ELISA on HL-60 cells", "assay_type": "cell-based, human", "conditions": "1, 6 or 24 hr, S1P or LPA up to 3 μM, TNF-α 10 ng/ml", "procedure": "Procedure for HL-60 Cells:\nCells: HL-60 (promyelocytic, human) suspension cells\nMedia: RPMI 1640 medium with 2 mM L-glutamine adjusted to contain 4.5 g/L glucose, 10 mM HEPES, and 1.0 mM sodium pyruvate+10% FBS\n1) Cells were plated at a density of 0.25×10^6 cells/ml.\n2) Cell pellcts were resuspended in 0.5% FBS media at a density of approximately 1×10^6 cells/ml.\n1) Made up all required solutions in 0.5% FBS media (control).\n2) 1.4 ml appropriate treatments were added to each well of a 6-well plate.\n5) 100 μl cell suspension was added to each well.\n7) After the specified time cell supematants were collected into 1.5 ml eppendorf tubes, spun down at 14000 rpm for 5 minutes and stored at −20° C.\nD. Refer to Procedure #1 For HeLa Cells (D)."}, "[3]": {"test_system": "293-EBNA cells", "assay": "IL-8 production in untransfected 293-EBNA cells", "assay_type": "cell-based"}, "[4]": {"test_system": "293-EBNA cells transfected with empty expression vector pcDNA3", "assay": "NF-κB luciferase reporter in 293-EBNA cells, empty vector pcDNA3", "assay_type": "cell-based", "conditions": "pcDNA3; 10 μM LPA; overnight", "procedure": "Monolayer Transient Transfection Protocol for 293-EBNA\n2) 6.6 μg NF-κB-tk-p4Luc reporter DNA and 6.6 μg of pC3-redg4 (expressing rat EDG-4), or pcDNA3 DNA was diluted in 500 μl OPTI-MEM (Gibco; Cat. 31985-062)\n2) After 6 hrs, media was removed and cells treated with compounds diluted in 0.5% FBS media (140 μl added to each well).\n3) Cells were treated for 24 hrs.\n1) Luclite kit (Packard; Cat. 6016911) was used for luciferase assay. All reagents were brought to room temperature before use.\n7) After incubation, plates were counted in a 12-detector Packard Top Count on a program without dark delay.\n(§1) The above protocol for assay 1 was followed except for the following changes:\n(§2) 2) 3 μg NFκB-tk-p4Luc reporter DNA and 3 μg pC3-hedg1, pC3-hedg3, pC3-redg4, pC3-hedg5 or pcDNA3 DNA was diluted in 240 μl OPTI-MEM (Gibco; Cat. 31985-062)\n(§3) 2) SRE Cotransfection: 0.5 μg of 2XSREtk-p4Luc-zeo reporter DNA and 3.5 μg pcDNA3, EDG-1, EDG-3 (pC3-hE3HP2, different from the clone used in Assay 2 of Example 11) or the newly cloned human EDG-4 (pC3-hedg4#36); NF-κB Cotransfection: 2 μg 6XNFκBtk-p4Luc-zeo reporter DNA and 2.0 μg pcDNA3, EDG-1, EDG-3 (pC3-hE3HP2), or EDG-4 (pC3-hedg4#36). Expression plasmid and reporter plasmid DNA samples were combined and diluted in 750 μl of DMEM/F12 (serum free media) and 20 μl Plus Reagent (Lipofectamine Plus Kit, Life Technologies Cat. 10964-013), and incubated at room temperature for 15 min.\n(§4) 1) Media was removed and cells treated with compounds diluted in DMEM/F12 media.\n(§5) 2) The cells were treated for 6 hours.\n(§6) 293-EBNA cells were grown, lipofected in monolayer cultures, and pretreated as described above for Example 11, assay #1, except that NF-κB and AP-1 reporter-transfected cells were pretreated for 6 hr in medium containing 0.5% FBS, then treated overnight in the same medium with or without 10 μM LPA."}, "[5]": {"biological_target": "T1, EDG-5 (Homo sapiens, UniProt Q9UBY5)", "T1 construct": "expressed in transfected cells; host or cells: 293-EBNA", "T1 sequence (Q9UBY5 1-353)": "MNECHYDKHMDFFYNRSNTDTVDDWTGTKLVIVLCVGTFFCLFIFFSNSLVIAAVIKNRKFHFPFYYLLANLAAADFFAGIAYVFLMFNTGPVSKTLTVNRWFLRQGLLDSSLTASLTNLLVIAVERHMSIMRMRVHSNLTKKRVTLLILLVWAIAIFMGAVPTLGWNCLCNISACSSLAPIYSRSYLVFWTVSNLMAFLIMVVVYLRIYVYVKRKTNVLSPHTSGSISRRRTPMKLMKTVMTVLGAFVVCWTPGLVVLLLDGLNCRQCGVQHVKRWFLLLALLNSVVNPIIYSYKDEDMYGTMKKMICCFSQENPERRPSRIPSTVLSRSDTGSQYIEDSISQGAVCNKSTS", "assay": "NF-κB luciferase reporter in 293-EBNA cells, EDG-5", "assay_type": "cell-based", "conditions": "10 μM LPA, overnight", "procedure": "Transient Transfection Protocol for 293-EBNA\nas §1, §2\n1) 0.01×10^6 cells were plated per well of a 96-well Blackview plate coated with polyD-lysine. No cells were plated in the outside wells of the 96-well plate.\nLPA, like S1P, is abundant in serun, but not plasma. Moreover, LPA is produced as a consequence of phospholipase A2 with or without the contribution of phospholipase D (depending on the phospholipid substrate). […] To date we have identified three subtypes of edg receptors that respond to LPA as an agonist. These are EDG-2, EDG-6 and EDG-5 (referred to also as LPA1, LPA2 and LPA3, respectively (Chun, J, Contos, J J A and Munroe, D G. 1998. A growing family of receptor genes for lysophosphatidic acid (LPA) and other lyso-phospholipids. Cell Biochem Biophys (in press)). The EDG-5 receptor is set out in co-pending U.S. application Ser. No. 08/997,803 to MLUNROE et al., incorporated herein by reference and the amino acid sequence and cDNA sequence for the EDG-6 receptor is set out in FIGS. 21 and 22, respectively. To determine whether these receptors might mediate inflammatory responses, each was cotransfected separately with SRE, NF-κB or AP-1 reporter genes. […]"}, "[6]": {"test_system": "293-EBNA cells transfected with empty expression vector pcDNA3", "assay": "SRE luciferase reporter in 293-EBNA cells, empty vector pcDNA3", "assay_type": "cell-based", "conditions": "10 μM LPA", "procedure": "NE-κB activates gene expression by binding to specific DNA sequences found in the promoters of genes regulated by this inflammation-related transcription factor. […] The SRE reporter was identical to the NF-κB reporter, except that the NF-κB binding sites were replaced with 2 SRE sites. The new reporter was called 2XSREtk-p4Luc-zeo.\nThe protocol described in Example 11 for Assay 1 was followed except for the following changes:\nas §3, §4, §5\nTransfection was accomplished using the Lipofectamine Plus kit (Life Technologies, Cat. 10964-013), using the manufacturer's recommended conditions.\nas §6"}, "[7]": {"biological_target": "T2, EDG-2 (Homo sapiens, UniProt Q92633)", "T2 construct": "expressed in transfected cells; host or cells: 293-EBNA", "T2 sequence (Q92633 whole entry)": "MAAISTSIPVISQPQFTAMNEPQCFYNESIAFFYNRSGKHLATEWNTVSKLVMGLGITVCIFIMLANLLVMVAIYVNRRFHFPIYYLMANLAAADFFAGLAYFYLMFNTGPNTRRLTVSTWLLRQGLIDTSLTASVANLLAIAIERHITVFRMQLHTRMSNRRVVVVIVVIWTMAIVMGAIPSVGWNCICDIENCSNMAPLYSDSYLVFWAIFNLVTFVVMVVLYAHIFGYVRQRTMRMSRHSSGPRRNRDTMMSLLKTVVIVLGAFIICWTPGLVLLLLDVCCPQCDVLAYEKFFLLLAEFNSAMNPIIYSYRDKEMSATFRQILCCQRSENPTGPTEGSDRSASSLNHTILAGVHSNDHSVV", "assay": "NF-κB reporter in 293-EBNA cells, EDG-2", "assay_type": "cell-based", "conditions": "10 μM LPA, overnight", "description": "(§7) LPA, like S1P, is abundant in serun, but not plasma. Moreover, LPA is produced as a consequence of phospholipase A2 with or without the contribution of phospholipase D (depending on the phospholipid substrate). […] To date we have identified three subtypes of edg receptors that respond to LPA as an agonist. These are EDG-2, EDG-6 and EDG-5 (referred to also as LPA1, LPA2 and LPA3, respectively (Chun, J, Contos, J J A and Munroe, D G. 1998. A growing family of receptor genes for lysophosphatidic acid (LPA) and other lyso-phospholipids. Cell Biochem Biophys (in press)). The EDG-5 receptor is set out in co-pending U.S. application Ser. No. 08/997,803 to MLUNROE et al., incorporated herein by reference and the amino acid sequence and cDNA sequence for the EDG-6 receptor is set out in FIGS. 21 and 22, respectively. To determine whether these receptors might mediate inflammatory responses, each was cotransfected separately with SRE, NF-κB or AP-1 reporter genes. […] This transcription factor, like NF-κB has been implicated in inflammatory and neoplastic signal transduction., though the gene targets of its action are largely distinct from those of NF-κB (Adcock IM. 1997. Transcription factors as activators of gene transcription: AP-1 and NF-κB. Monaldi Arch Chest Dis 52:178-186. Review). […]"}, "[8]": {"test_system": "EDG-6", "assay": "NF-κB reporter in 293-EBNA cells, EDG-6", "assay_type": "cell-based, human", "conditions": "10 μM LPA, overnight", "description": "as §7"}, "[9]": {"biological_target": "T2, EDG-2", "assay": "SRE reporter in 293-EBNA cells, EDG-2", "assay_type": "cell-based", "conditions": "10 μM LPA", "description": "as §7"}, "[10]": {"biological_target": "T1, EDG-5", "assay": "SRE reporter in 293-EBNA cells, EDG-5", "assay_type": "cell-based", "conditions": "10 μM LPA", "description": "as §7"}, "[11]": {"test_system": "EDG-6", "assay": "SRE reporter in 293-EBNA cells, EDG-6", "assay_type": "cell-based, human", "conditions": "10 μM LPA", "description": "as §7"}, "[12]": {"biological_target": "T2, EDG-2", "assay": "AP-1 reporter in 293-EBNA cells, EDG-2", "assay_type": "cell-based", "conditions": "10 μM LPA", "description": "as §7"}, "[13]": {"biological_target": "T1, EDG-5", "assay": "AP-1 reporter in 293-EBNA cells, EDG-5", "assay_type": "cell-based", "conditions": "10 μM LPA", "description": "as §7"}, "[14]": {"test_system": "EDG-6", "assay": "AP-1 reporter in 293-EBNA cells, EDG-6", "assay_type": "cell-based, human", "conditions": "10 μM LPA", "description": "as §7"}, "[15]": {"test_system": "293-EBNA cells transfected with empty expression vector pcDNA3", "assay": "AP-1 reporter in 293-EBNA cells, empty vector pcDNA3", "assay_type": "cell-based", "conditions": "10 μM LPA", "description": "as §7"}},
  "data": [
    {"substance": "lysophosphatidic acid [LPA]", "values": [
      {"measurement": "IL-8 levels increase over untreated controls", "setting": "[1]", "result": 3, "unit": "fold"},
      {"measurement": "IL-8 release", "setting": "[2]", "result": "no such release"},
      {"measurement": "IL-8 production", "setting": "[3]", "result": "no IL-8 production"},
      {"measurement": "NF-κB reporter response in control cells", "setting": "[4]", "result": "no response to LPA"},
      {"measurement": "Activation of the NF-κB reporter", "setting": "[5]", "result": "3-4 fold"},
      {"measurement": "Endogenous SRE reporter response vs untreated control cells", "setting": "[6]", "result": "about 1.5 fold"},
      {"measurement": "Activation of the NF-κB reporter", "setting": "[7]", "result": "3-4 fold"},
      {"measurement": "Activation of the NF-κB reporter", "setting": "[8]", "result": "3-4 fold"},
      {"measurement": "Induction of the SRE reporter", "setting": "[9]", "result": "greater than 2 fold"},
      {"measurement": "Induction of the SRE reporter", "setting": "[10]", "result": "greater than 2 fold"},
      {"measurement": "SRE reporter induction", "setting": "[11]", "result": "strongly induced both reporters"},
      {"measurement": "Induction of the AP-1 reporter", "setting": "[12]", "result": "greater than 2 fold"},
      {"measurement": "Induction of the AP-1 reporter", "setting": "[13]", "result": "greater than 2 fold"},
      {"measurement": "AP-1 reporter induction", "setting": "[14]", "result": "strongly induced both reporters"},
      {"measurement": "Endogenous AP-1 reporter response vs untreated control cells", "setting": "[15]", "result": "about 1.5 fold"}
    ]}
  ]
}
